Values joined by “and” are separate entries in the source; they are usually repeats but may differ in a detail not shown here. Identical values can stand only once. Inconclusive results and toxic doses are left out.

The assay concerns CD2F1 mice, L1210 leukemia ip, survival T/C. The assay can be described thus: NCI In Vivo Anticancer Drug Screen. Data for tumor model L1210 Leukemia (intraperitoneal) in CD2F1 (CDF1) mice. The following applies: higher = longer survival. Summed up:
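Vehicle-treated tumor-bearing mice served as controls (C) for compound-treated mice (T). Reported figure is T divided by C.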

Setting [1] is: endpoint: mean survival time, dose: 100.0 mg/kg/injection, schedule: Q01DX009 (ip), vehicle: other.
[2] abbreviates: endpoint: mean survival time, dose: 200.0 mg/kg/injection, schedule: Q01DX009 (ip), vehicle: other.
The mark [3] stands for this setting: endpoint: mean survival time, dose: 100.0 mg/kg/injection, schedule: Q04DX002 (ip), vehicle: saline with Tween-80.
The mark [4] stands for this setting: endpoint: mean survival time, dose: 200.0 mg/kg/injection, schedule: Q04DX002 (ip), vehicle: saline with Tween-80.
[5] abbreviates: endpoint: mean survival time, dose: 400.0 mg/kg/injection, schedule: Q04DX002 (ip), vehicle: saline with Tween-80.
The mark [6] stands for this setting: endpoint: mean survival time, dose: 100.0 mg/kg/injection, schedule: Q04DX003 (ip), vehicle: saline with Tween-80.
The mark [7] stands for this setting: endpoint: mean survival time, dose: 200.0 mg/kg/injection, schedule: Q04DX003 (ip), vehicle: saline with Tween-80.
Where [8] appears, read: endpoint: mean survival time, dose: 400.0 mg/kg/injection, schedule: Q04DX003 (ip), vehicle: saline with Tween-80.

For the molecule `[Cl][Pt+2][Br].[NH-]CC[NH-]`, the T/C runs as follows: (endpoint: mean survival time, dose: 0.47 mg/kg/injection, schedule: Q01DX009 (ip), vehicle: saline with Tween-80) 115 % of control; (endpoint: mean survival time, dose: 0.95 mg/kg/injection, schedule: Q01DX009 (ip), vehicle: saline with Tween-80) 105 % of control; (endpoint: mean survival time, dose: 1.9 mg/kg/injection, schedule: Q01DX009 (ip), vehicle: saline with Tween-80) 110 % of control; (endpoint: mean survival time, dose: 3.8 mg/kg/injection, schedule: Q04DX003 (ip), vehicle: saline with Tween-80) 101 % of control; (endpoint: mean survival time, dose: 7.5 mg/kg/injection, schedule: Q01DX009 (ip), vehicle: saline with Tween-80) 94 % of control; (endpoint: mean survival time, dose: 7.5 mg/kg/injection, schedule: Q04DX003 (ip), vehicle: saline with Tween-80) 121 % of control.

Turning to `NC(Cc1cc([N+](=O)[O-])ccc1CN(CCCl)CCCl)C(=O)O` (stereo not drawn), the T/C by setting is: (endpoint: mean survival time, dose: 0.25 mg/kg/injection, schedule: Q04DX003 (ip), vehicle: Klucel (hydroxypropylcellulose) (HPC)) 109 % of control; (endpoint: mean survival time, dose: 0.5 mg/kg/injection, schedule: Q04DX003 (ip), vehicle: Klucel (hydroxypropylcellulose) (HPC)) 111 % of control; (endpoint: mean survival time, dose: 0.75 mg/kg/injection, schedule: Q01DX001 (ip), vehicle: Klucel (hydroxypropylcellulose) (HPC)) 103 % of control; (endpoint: mean survival time, dose: 1.0 mg/kg/injection, schedule: Q04DX003 (ip), vehicle: Klucel (hydroxypropylcellulose) (HPC)) 115 % of control; (endpoint: mean survival time, dose: 1.5 mg/kg/injection, schedule: Q01DX001 (ip), vehicle: Klucel (hydroxypropylcellulose) (HPC)) 114 % of control; (endpoint: mean survival time, dose: 3.0 mg/kg/injection, schedule: Q01DX001 (ip), vehicle: Klucel (hydroxypropylcellulose) (HPC)) 123 % of control. Besides, the T/C runs as follows: (endpoint: mean survival time, dose: 4.0 mg/kg/injection, schedule: Q01DX009 (ip), vehicle: Klucel (hydroxypropylcellulose) (HPC)) 158 % of control; (endpoint: mean survival time, dose: 8.0 mg/kg/injection, schedule: Q01DX009 (ip), vehicle: Klucel (hydroxypropylcellulose) (HPC)) 123 % of control; (endpoint: median survival time, dose: 0.75 mg/kg/injection, schedule: Q01DX001 (ip), vehicle: Klucel (hydroxypropylcellulose) (HPC)) 115 % of control; (endpoint: median survival time, dose: 1.5 mg/kg/injection, schedule: Q01DX001 (ip), vehicle: Klucel (hydroxypropylcellulose) (HPC)) 111 % of control; (endpoint: median survival time, dose: 1.88 mg/kg/injection, schedule: Q04DX003 (ip), vehicle: Klucel (hydroxypropylcellulose) (HPC)) 362 % of control; (endpoint: median survival time, dose: 3.0 mg/kg/injection, schedule: Q01DX001 (ip), vehicle: Klucel (hydroxypropylcellulose) (HPC)) 119 % of control. The T/C by setting is: (endpoint: median survival time, dose: 3.12 mg/kg/injection, schedule: Q01DX001 (ip), vehicle: Klucel (hydroxypropylcellulose) (HPC)) 362 % of control; (endpoint: median survival time, dose: 6.25 mg/kg/injection, schedule: Q01DX001 (ip), vehicle: Klucel (hydroxypropylcellulose) (HPC)) 114 % of control; (endpoint: median survival time, dose: 12.5 mg/kg/injection, schedule: Q01DX001 (ip), vehicle: Klucel (hydroxypropylcellulose) (HPC)) 124 % of control; (endpoint: median survival time, dose: 25.0 mg/kg/injection, schedule: Q01DX001 (ip), vehicle: Klucel (hydroxypropylcellulose) (HPC)) 121 % of control.

For `O=C(O)C1C2CC3C(C2)C31` (stereo not drawn), the T/C is, setting by setting: under setting [1], 96 % of control; under setting [2], 104 % of control.

Regarding `Cc1[nH]nc2c(=O)n(C)cnc12`, the T/C was 103 % of control (endpoint: mean survival time, dose: 12.5 mg/kg/injection, schedule: Q01DX005 (ip), vehicle: water); 104 % of control (endpoint: mean survival time, dose: 25.0 mg/kg/injection, schedule: Q01DX005 (ip), vehicle: water); 98 % of control (endpoint: mean survival time, dose: 50.0 mg/kg/injection, schedule: Q01DX005 (ip), vehicle: water); 92 % of control (endpoint: mean survival time, dose: 100.0 mg/kg/injection, schedule: Q01DX005 (ip), vehicle: water); 95 % of control (endpoint: mean survival time, dose: 200.0 mg/kg/injection, schedule: Q01DX005 (ip), vehicle: water).

Consider `CC1(C)CC(O)C2(C)CCC3(C)C(=CCC4C5(C)CCC(O)C(C)(CO)C5CCC43C)C2C1` (stereo not drawn) (tested in a mixture with another compound), for which the T/C runs as follows: under setting [3], 102 % of control; under setting [4], 98 % of control; under setting [5], 107 % of control.

Consider `N#C/C(=C(\N)c1ccccc1)c1ccccc1`, for which the T/C reads like this: (endpoint: mean survival time, dose: 100.0 mg/kg/injection, schedule: Q01DX001 (ip), vehicle: Klucel (hydroxypropylcellulose) (HPC)) 93 % of control; (endpoint: mean survival time, dose: 400.0 mg/kg/injection, schedule: Q01DX001 (ip), vehicle: Klucel (hydroxypropylcellulose) (HPC)) 112 % of control.

For the molecule `CC(CCC(=O)O)(c1cc(Br)c(O)c(Br)c1)c1cc(Br)c(O)c(Br)c1`, the T/C reads like this: under setting [1], 96 % of control; under setting [2], 102 % of control; (endpoint: mean survival time, dose: 400.0 mg/kg/injection, schedule: Q01DX009 (ip), vehicle: other) 101 % of control.

`O=C1CN(CO)C(=O)N1CO`: the T/C is 110 % of control (endpoint: median survival time, dose: 25.0 mg/kg/injection, schedule: Q01DX009 (ip), vehicle: Klucel (hydroxypropylcellulose) (HPC)); 110 % of control (endpoint: median survival time, dose: 50.0 mg/kg/injection, schedule: Q01DX009 (ip), vehicle: Klucel (hydroxypropylcellulose) (HPC)); 116 % of control (endpoint: median survival time, dose: 100.0 mg/kg/injection, schedule: Q01DX009 (ip), vehicle: Klucel (hydroxypropylcellulose) (HPC)); 112 % of control (endpoint: median survival time, dose: 200.0 mg/kg/injection, schedule: Q01DX009 (ip), vehicle: Klucel (hydroxypropylcellulose) (HPC)); 96 % of control (endpoint: median survival time, dose: 400.0 mg/kg/injection, schedule: Q01DX009 (ip), vehicle: Klucel (hydroxypropylcellulose) (HPC)).

Take `CCCCCCCCCCCCCCCc1ccc(C(=O)C[n+]2ccccc2)cc1`: the T/C is 117 % of control (endpoint: mean survival time, dose: 12.5 mg/kg/injection, schedule: Q01DX009 (ip), vehicle: saline with Tween-80); 103 % of control (endpoint: mean survival time, dose: 12.5 mg/kg/injection, schedule: Q04DX003 (ip), vehicle: saline with Tween-80); 106 % of control (endpoint: mean survival time, dose: 25.0 mg/kg/injection, schedule: Q04DX003 (ip), vehicle: saline with Tween-80); 111 % of control (endpoint: mean survival time, dose: 50.0 mg/kg/injection, schedule: Q04DX003 (ip), vehicle: saline with Tween-80).

On to `Cc1ccc(Cl)cc1NC(=O)OCC(C)C`, for which the T/C reads like this: under setting [3], 90 % of control; under setting [4], 93 % of control; under setting [5], 90 % of control.

As for `O=C(CCCl)Oc1ccc(Br)cc1`, the T/C was 94 % of control (endpoint: mean survival time, dose: 100.0 mg/kg/injection, schedule: Q01DX009 (ip), vehicle: saline with Tween-80); 98 % of control under setting [6]; 96 % of control (endpoint: mean survival time, dose: 200.0 mg/kg/injection, schedule: Q01DX009 (ip), vehicle: saline with Tween-80); 100 % of control under setting [7]; 102 % of control (endpoint: mean survival time, dose: 400.0 mg/kg/injection, schedule: Q01DX009 (ip), vehicle: saline with Tween-80); 96 % of control under setting [8].

As to `CN(C(=O)c1c(Cl)n(C)c2ccccc12)c1ccccc1`, the T/C is, setting by setting: (endpoint: mean survival time, dose: 25.0 mg/kg/injection, schedule: Q04DX003 (ip), vehicle: Klucel (hydroxypropylcellulose) (HPC)) 98 % of control; (endpoint: mean survival time, dose: 50.0 mg/kg/injection, schedule: Q04DX003 (ip), vehicle: Klucel (hydroxypropylcellulose) (HPC)) 101 % of control; (endpoint: mean survival time, dose: 100.0 mg/kg/injection, schedule: Q04DX003 (ip), vehicle: Klucel (hydroxypropylcellulose) (HPC)) 104 % of control.

Regarding `C=C(Cl)CSCCCS`, the T/C reads like this: (endpoint: mean survival time, dose: 100.0 mg/kg/injection, schedule: Q04DX003 (ip), vehicle: acetone) 111 % of control; (endpoint: mean survival time, dose: 200.0 mg/kg/injection, schedule: Q04DX003 (ip), vehicle: acetone) 116 % of control; (endpoint: mean survival time, dose: 400.0 mg/kg/injection, schedule: Q04DX003 (ip), vehicle: acetone) 122 % of control.

As to `C1CC[N-]CC1.[Cl][Pt+2][Cl].[NH2-]`, the T/C (endpoint: mean survival time, dose: 6.25 mg/kg/injection, schedule: Q04DX003 (ip), vehicle: distilled water + Tween-80) was 100 % of control; the T/C (endpoint: mean survival time, dose: 12.5 mg/kg/injection, schedule: Q04DX003 (ip), vehicle: distilled water + Tween-80) is 96 % of control; the T/C (endpoint: mean survival time, dose: 25.0 mg/kg/injection, schedule: Q04DX003 (ip), vehicle: distilled water + Tween-80) was 94 % of control; the T/C (endpoint: mean survival time, dose: 50.0 mg/kg/injection, schedule: Q04DX003 (ip), vehicle: distilled water + Tween-80) is 91 % of control.

As to `CSc1cccc(NC2=NCCO2)c1`, the T/C was 90 % of control under setting [6], 93 % of control under setting [7] and 86 % of control under setting [8].

On to `CC1C(=O)OC2C1CCC1(C)C(O)OC(=O)C(C)C21` (stereo not drawn), for which the T/C is, setting by setting: under setting [3], 104 % of control and 96 % of control; under setting [4], 100 % of control and 108 % of control; under setting [5], 100 % of control and 104 % of control.

As to `CCN(CC)C(=O)c1ccccc1`, the T/C was 98 % of control (endpoint: mean survival time, dose: 100.0 mg/kg/injection, schedule: Q01DX009 (ip), vehicle: saline) and 98 % of control (endpoint: mean survival time, dose: 200.0 mg/kg/injection, schedule: Q01DX009 (ip), vehicle: saline).

The record behind these values is PubChem BioAssay AID256 (DTP/NCI, 2004).
